Source: PubChem BioAssay (NCI)
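A five-concentration, 48-hour dose response in 96-well plates underlies each endpoint, interpolated linearly between surrounding concentrations. TGI marks complete inhibition of growth.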

Tests used:
Assay in all cases: NCI anticancer screen, dose series, 48 h
[1] = system: 786-0 renal
[2] = system: A498 renal
[3] = system: A549 NSCLC
[4] = system: ACHN renal
[5] = system: CAKI-1 renal
[6] = system: CCRF-CEM leukemia
[7] = system: COLO 205 colon
[8] = system: DLD-1 colon
[9] = system: DMS 114 small cell lung
[10] = system: DMS 273 small cell lung
[11] = system: EKVX NSCLC
[12] = system: HCC-2998 colon
[13] = system: HCT-116 colon
[14] = system: HCT-15 colon
[15] = system: HL-60(TB) leukemia
[16] = system: HOP-62 NSCLC
[17] = system: HOP-92 NSCLC
[18] = system: HT29 colon
[19] = system: IGROV1 ovarian
[20] = system: K-562 leukemia
[21] = system: KM12 colon
[22] = system: LOX IMVI melanoma
[23] = system: LXFL 529 NSCLC
[24] = system: M14 melanoma
[25] = system: M19-MEL melanoma
[26] = system: MALME-3M melanoma
[27] = system: MOLT-4 leukemia
[28] = system: NCI-H23 lung
[29] = system: NCI-H460 lung
[30] = system: NCI-H522 lung
[31] = system: OVCAR-3 ovarian
[32] = system: OVCAR-4 ovarian
[33] = system: OVCAR-5 ovarian
[34] = system: OVCAR-8 ovarian
[35] = system: RPMI-8226 leukemia
[36] = system: RXF 393 renal
[37] = system: RXF-631 renal
[38] = system: SF-268 CNS
[39] = system: SF-295 CNS
[40] = system: SF-539 CNS
[41] = system: SK-MEL-2 melanoma
[42] = system: SK-MEL-28 melanoma
[43] = system: SK-MEL-5 melanoma
[44] = system: SK-OV-3 ovarian
[45] = system: SN12C renal
[46] = system: SNB-19 CNS
[47] = system: SNB-75 CNS
[48] = system: SNB-78 CNS
[49] = system: SW-620 colon
[50] = system: TK-10 renal
[51] = system: U251 CNS
[52] = system: UACC-257 melanoma
[53] = system: UACC-62 melanoma
[54] = system: UO-31 renal
[55] = system: XF 498 CNS
[56] = system: HOP-18 NSCLC
[57] = system: KM20L2 colon
[58] = system: NCI-H226 lung
[59] = system: SR leukemia

Measured: TGI

CC(O)/C=C/C(CCC(C)CO)C(C)C (stereo not drawn)
not listed: [56] | [57] | [58] | [59]
> 100 µM: all other assays above

Clc1ccc(-n2nnc(C3=NCCN3)c2-c2ccccc2)cc1
not listed: [37]
> 100 µM: all other assays above
